Literature values as cited in patent publication US20070293529A1, “Tetrasubstituted ureas as modulators of 11-beta hydroxyl steroid dehydrogenase type 1” (priority 2006, published 2007).

Assays:
11βHSD1 in the eye = target: T1, 11βHSD1 in the eye (Homo sapiens, UniProt P28845); details: healthy volunteers, after seven days of carbenoxolone treatment
T1 construct: host or cells: endogenous enzyme in the eye (NPE cells) of the treated volunteers

[1] = test system: pancreatic islet cells of ob/ob mice
[2] = test system: primary hippocampal cells
11βHSD1 = target: T2, 11βHSD1 (Homo sapiens, UniProt P28845); details: two randomized, double-blind, placebo-controlled crossover studies
T2 construct: host or cells: endogenous enzyme of the treated subjects (brain)
T2 sequence (P28845 whole entry): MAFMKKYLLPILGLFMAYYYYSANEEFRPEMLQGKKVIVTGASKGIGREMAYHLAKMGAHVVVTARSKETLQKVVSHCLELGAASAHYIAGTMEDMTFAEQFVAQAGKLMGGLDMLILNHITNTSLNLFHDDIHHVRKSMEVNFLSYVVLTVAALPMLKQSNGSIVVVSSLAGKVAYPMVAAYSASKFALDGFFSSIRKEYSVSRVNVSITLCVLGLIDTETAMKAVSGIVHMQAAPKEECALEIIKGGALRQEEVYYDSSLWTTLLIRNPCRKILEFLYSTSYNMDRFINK

T1 sequence (P28845 whole entry): as above

Q: For `CC1(C)[C@@H](OC(=O)CCC(=O)O)CC[C@]2(C)[C@H]3C(=O)C=C4[C@@H]5C[C@@](C)(C(=O)O)CC[C@]5(C)CC[C@@]4(C)[C@]3(C)CC[C@@H]12` [carbenoxolone], which “reduction of intra-ocular pressure (IOP)” value (11βHSD1 in the eye) is on record?
A: Its value is 18%.

Q: And the glucose-stimulated insulin release [1]?
A: Its glucose-stimulated insulin release is “improves glucose-stimulated insulin release”.

Q: And the “protection from glucocorticoid-mediated exacerbation of excitatory amino acid neurotoxicity” value [2]?
A: Its value is “protects the cells from glucocorticoid-mediated exacerbation of excitatory amino acid neurotoxicity”.

Q: And the “verbal fluency and verbal memory” value (11βHSD1)?
A: Its value is “improved verbal fluency and verbal memory”.

Q: And the “negative effects of glucocorticoids on bone nodule formation” value (bone nodule formation)?
A: Its value is “attenuate the negative effects of glucocorticoids on bone nodule formation”.
